Experimental findings from patent US20050002861A1, “Enhanced scintigraphic imaging agents for imaging of infection and inflammation” (priority 2003, published 2005) are described below.

The test has as its system muscle tissue infected by E. coli. Nature of the test: E. coli rabbit infection model: infection uptake and biodistribution of Tc-99m PGC's. The format is in vivo, New Zealand White (NZW) rabbits. The settings on record: only some lysines replaced by arginine; compared with Tc-99m P1827H. An excerpt:
In yet another aspect of the present invention, the compositions of the invention are capable of achieving a favorable biodistribution that is characterized by a specific accumulation at the site to be imaged, e.g. in an infected muscle, and at the same time a low concentration in uninfected areas, such as normal muscle or blood. The biodistribution of the radiolabeled compositions of the invention may be expressed by means of an image contrast ratio. The image contrast ratio can be determined as the ratio Imax(infected muscle)/Imax(control muscle), hereinafter referred to as Imax:C, i.e., the maximum radioactivity accumulated in an infected muscle sample versus the maximum radioactivity accumulated in a control, i.e., uninfected, muscle sample. The radioactivity is measured as % of injected dose per gram of tissue/blood, i.e., % ID/g. For the determination of Imax values (and Iavg values; see below), the tissue or blood samples are divided into six parts of equal size/weight and the radioactivity in each of the six samples is counted. The sample with the highest radioactivity is used for the Imax value (the average of all six samples was used for Iavg). Imax (and Iavg) values are expressed as % ID/g. […]

Where no end group is shown, it is not given here.

Turning to “Ac-KKKKKCGCGGPLYRRIIRRLLES (cysteine pairing not given here) [P1829]”, the “improvement over Tc-99m P1827H” value was “no significant improvement”.
To “Ac-RRRRRCGCGGPLYKKIIKKLLES (cysteine pairing not given here) [P1828]” belongs “no significant improvement”.
